Data as given in ChEMBL document CHEMBL1134888, “Preliminary structure-antiangiogenic activity relationships of 4-senecioyloxymethyl-6,7-dimethoxycoumarin” (Bioorg Med Chem Lett, 2002).
≈ marks a conversion by molar mass, not a printed value.

Key:
B16 [1] = assay: In vitro inhibition of B16 (murine melanoma) tumor cell growth.; details: Mus musculus
HCT-116 [2] = assay: In vitro inhibition of HCT116 (human colon) tumor cell growth.; type: functional, cell-based
HUVEC (Homo sapiens) [3] = assay: Inhibitory percentage in HUVEC tube formation assay at a concentration of 3 ug/mL; Inactive
HUVEC (Homo sapiens) [4] = assay: Inhibitory percentage in HUVEC tube formation assay at a concentration of 1 ug/mL (toxic)
HUVEC (Homo sapiens) [5] = assay: Inhibitory percentage in HUVEC tube formation assay at a concentration of 3 ug/mL (toxic)
B16 [6] = assay: Concentration required for 50% reduction in B16 tumor cell growth (murine melanoma) was measured; NA denotes […]
HCT-116 [7] = assay: Concentration required for 50% reduction in HCT116 tumor cell growth (Human colon) was measured; NA denotes […]; type: functional, cell-based

IC50 (B16 [1]) [µg/mL] | IC50 (HCT-116 [2]) [µg/mL] | SMILES | further results
> 10 | > 10 | CC(C)=CC(=O)OCc1cc(=O)oc2cc3ccccc3cc12 | 
> 10 | > 10 | COc1cc2oc(=O)cc(COC(=O)/C=C/c3ccc(Cl)cc3)c2cc1OC | 
> 10 | > 10 | C/C=C/C(=O)OCc1cc(=O)oc2cc(OC)c(OC)cc12 | inhibition at 3 µg/mL (HUVEC (Homo sapiens) [3]): < 10%
> 10 | > 10 | COc1cc2oc(=O)cc(COC(=O)/C=C/c3ccc(N)cc3)c2cc1OC | 
4.15 (≈ 10.9 µM) | 5.21 (≈ 13.6 µM) | COc1cc2oc(=O)cc(COC(=O)/C=C/c3ccc(O)cc3)c2cc1OC | 
1.27 | 2.43 | Br.COc1ccc(/C=C/C(=O)OCc2cc(=O)oc3cc(OC)c(OC)cc23)cn1 | 
> 10 | > 10 | COc1cc2oc(=O)cc(COC(=O)/C=C/c3ccc(OCCN(C)C)cc3)c2cc1OC.Cl | 
> 10 | > 10 | COc1cc2oc(=O)cc(COC(=O)/C=C/c3ccccc3)c2cc1OC | 
> 10 | > 10 | CC(C)=CC(=O)OCc1cc(=O)oc2ccc(Cl)cc12 | 
> 10 | > 10 | COc1ccc(/C=C/C(=O)OCc2cc(O)nc3cc(OC)c(OC)cc23)cc1 | 
> 10 | > 10 | COc1ccc2oc(=O)cc(COC(=O)C=C(C)C)c2c1 | inhibition at 3 µg/mL (HUVEC (Homo sapiens) [3]): < 10%
> 10 | > 10 | C=CC(=O)OCc1cc(=O)oc2cc(OC)c(OC)cc12 | inhibition at 3 µg/mL (HUVEC (Homo sapiens) [3]): < 10%
> 10 | > 10 | COc1cc2oc(=O)cc(COC(=O)C=C(C)C)c2cc1OC | 
> 10 | > 10 | COc1ccc2c(COC(=O)C=C(C)C)cc(=O)oc2c1 | inhibition at 3 µg/mL (HUVEC (Homo sapiens) [3]): < 10%
0.96 (≈ 2.42 µM) | 1.02 (≈ 2.57 µM) | COc1ccc(/C=C/C(=O)OCc2cc(=O)oc3cc(OC)c(OC)cc23)cc1 | inhibition at 1 µg/mL (HUVEC (Homo sapiens) [4]): 100%
> 10 | > 10 | CC(C)=CC(=O)OCc1cc(=O)oc2cc3c(cc12)OCO3 | 
3 (≈ 7.27 µM) | 3.41 (≈ 8.27 µM) | COc1ccc(/C=C/C(=O)OCc2cc(=O)oc3cc(OC)c(OC)cc23)cc1O | inhibition at 3 µg/mL (HUVEC (Homo sapiens) [5]): 35.5%
0.09 (≈ 0.166 µM) | 0.11 (≈ 0.202 µM) | COc1cccc2c1C(=O)c1c(O)c3c(c(O)c1C2=O)C[C@@](O)(C(=O)CO)C[C@@H]3O[C@H]1C[C@H](N)[C@H](O)[C@H](C)O1 [DOXORUBICIN] | 
 |  | Cc1ccc(C(=O)Nc2ccc(S(=O)(=O)O)c3cc(S(=O)(=O)O)cc(S(=O)(=O)O)c23)cc1NC(=O)c1cccc(NC(=O)Nc2cccc(C(=O)Nc3cc(C(=O)Nc4ccc(S(=O)(=O)O)c5cc(S(=O)(=O)O)cc(S(=O)(=O)O)c45)ccc3C)c2)c1 [SURAMIN] | IC50 (B16 [6]): Not Active; IC50 (HCT-116 [7]): Not Active

SMILES | IC50 (B16 [1]) [µg/mL] | IC50 (HCT-116 [2]) [µg/mL] | further results
COc1cc2oc(=O)cc(COC(=O)/C=C/c3cc(OC)c(OC)c(OC)c3)c2cc1OC | 6.74 (≈ 14.8 µM) | 8.31 (≈ 18.2 µM) | 
